# In paper PMC12700550, “DLL4^+ neutrophils promote Notch1-mediated endothelial PANoptosis to exacerbate acute lung injury in sepsis” (The Journal of Clinical Investigation, 2025):
# Where “and” joins values, the source holds several entries; their conditions need not be identical. Equal values may be shown once.
# Legend:
# KC = experiment: Lung keratinocyte chemoattractant (KC) mRNA, CLP mice; type: in vivo, mouse; conditions: 20 h; for lung KC mRNA (Figure 6H): 10 mg/kg NDI, vs sham, individual mice
# Experimental: (§1) Sepsis was induced in mice by cecal ligation and puncture (CLP) as described previously ([45], [46]). Mice were anesthetized with isoflurane to a surgical plane and placed in a supine position. CLP was performed through a midline laparotomy. The abdomen was shaved and disinfected. Through a 2 cm midline incision, the cecum was exposed and then ligated with a 4-0 silk suture 1 cm proximal from the distal cecal extremity. For 20-hour CLP experiments, the cecum was punctured twice with a 22-gauge needle. A small amount of cecal content was extruded through both holes, and the ligated cecum was returned to the peritoneal cavity. The wound was closed in layers. For 10-day sepsis survival studies, the cecum was punctured once with a 22-gauge needle. A small amount of cecal content was extruded. Mice were allocated to the vehicle and adoptive transfer of DLL4^+ neutrophils or DLL4^– neutrophils groups. Adoptive transfer mice received a retro-orbital injection of 1 × 10^6 cells per mouse DLL4^+ neutrophils or DLL4^– neutrophils in […] phosphate-buffered saline (PBS) immediately after abdominal closure in both the 20-hour experiments and the survival study. Vehicle groups received an equivalent volume of PBS, while treatment groups received NDI 10 mg/kg in […] PBS via retro-orbital injection after CLP. This dose was chosen primarily on the basis of our laboratory’s prior experience, we have consistently used this dose in mouse CLP models with reproducible efficacy and without observable toxicity ([39], [44]). Sham-operated animals underwent a laparotomy without CLP. After closure, the mice received a subcutaneous injection of 0.5 mL of normal saline to overcome surgery-induced dehydration. For 20-hour experiments, animals were not injected with antibiotics; however, for survival studies, animals were given 0.5 mg per kg body weight imipenem (lot 4D21K05, WG Critical Care LLC) subcutaneously in 0.5 mL saline once at the end of CLP. All mice were subcutaneously injected with a single dose of 0.1 mg/kg buprenorphine after CLP. […]
# c-GSDMD = experiment: c/t GSDMD (pyroptosis) in PVECs cocultured with neutrophils, Western blot; type: cell-based, mouse; conditions: for c/t GSDMD (Figure 4G): 10 μM peptide, 16 h, individual replicates
# Experimental: Wild-type PVECs (5 × 10^5) were cocultured with sorted DLL4^+ neutrophils (5 × 10^5) or DLL4^– neutrophils (5 × 10^5) and then treated with different dosages of peptides or 10 μM DAPT (Thermo Fisher Scientific), 10 μM NDI (GenScript), or 10 μM NDI scramble (GenScript). Notch1-knockdown PVECs (5 × 10^5) were cocultured with sorted DLL4^+ neutrophils (5 × 10^5). After 16 hours, neutrophils were washed away by PBS, and PVECs were collected for further experiments. Cell viability was evaluated by propidium iodide staining using the FITC Annexin V Apoptosis Detection Kit I (catalog 556547, BD Pharmingen). Cell death was quantified as the percentage of propidium iodide–positive cells by flow cytometry.
# PVECs and lung tissue were collected in previous steps. Whole-cell proteins were extracted, and the protein concentration was measured using an ABC protein assay kit (catalog 5000002, Bio-Rad). Proteins were separated using NuPAGE 4%–12% Bis-Tris gels (Invitrogen), transferred to PVDF membranes, and immunoblotted with the antibodies indicated in the figure legends according to the manufacturer’s recommendations. The ZBP1 antibody (catalog PA5-20455; 1:1,000) used in this study was obtained from Thermo Fisher Scientific, and the c-GSDMD (catalog 10137S; 1:250), GSDMD (catalog 39754S; 1:1000), c-caspase-3 (catalog 9661L; 1:250), caspase-3 (catalog 9662S; 1:1,000), p-MLKL (catalog 37333S; 1:250), MLKL (catalog 37705S; 1:1,000), N1ICD (c-Notch1) (catalog 4147S; 1:250), and Notch1 (catalog 3608S; 1:1,000) antibodies were obtained from Cell Signaling Technology. GAPDH (catalog 60004-1-Ig; 1:10,000) and β-actin (catalog A5441, Sigma-Aldrich; 1:5,000) were obtained from ProteinTech. After the blots were incubated with primary antibodies, the membranes were washed 3 times, and the blots were subsequently incubated with the corresponding fluorescent secondary antibody (LI-COR). Bands were detected using an Odyssey FC Dual-Mode Imaging system 2800 (LI-COR).
# C57BL/6 mice, CLP sepsis = experiment: Lung injury score (H&E), CLP mice; type: in vivo, mouse; conditions: 20 h; for lung injury score (Figure 6J): 10 mg/kg NDI, score 0 to 1, individual values
# Experimental: Sepsis was induced in mice by cecal ligation and puncture (CLP) as described previously ([45], [46]). Mice were anesthetized with isoflurane to a surgical plane and placed in a supine position. CLP was performed through a midline laparotomy. The abdomen was shaved and disinfected. Through a 2 cm midline incision, the cecum was exposed and then ligated with a 4-0 silk suture 1 cm proximal from the distal cecal extremity. […] A small amount of cecal content was extruded through both holes, and the ligated cecum was returned to the peritoneal cavity. The wound was closed in layers. […] A small amount of cecal content was extruded. […] Vehicle groups received an equivalent volume of PBS, while treatment groups received NDI 10 mg/kg in […] PBS via retro-orbital injection after CLP. This dose was chosen primarily on the basis of our laboratory’s prior experience, we have consistently used this dose in mouse CLP models with reproducible efficacy and without observable toxicity ([39], [44]). Sham-operated animals underwent a laparotomy without CLP. After closure, the mice received a subcutaneous injection of 0.5 mL of normal saline to overcome surgery-induced dehydration. […] All mice were subcutaneously injected with a single dose of 0.1 mg/kg buprenorphine after CLP. Lung tissues were fixed in 10% formalin before being embedded in paraffin. Blocks were cut into 5 μm sections and stained with H&E. Slides were evaluated under light microscopy to assess the degree of lung injury. Scoring was done using a system created by the American Thoracic Society ([47]). Scores ranged from 0 to 1 and were based on proteinaceous debris in the airspaces, the degree of septal thickening, and neutrophil infiltration in the alveolar and interstitial spaces. The average score per field was calculated at ×200 original magnification.
# ZBP1 = ZBP1 protein in lungs of CLP mice, Western blot; type: in vivo, mouse; conditions: 10 mg/kg NDI, 20 h; for lung ZBP1 protein (Figure 5B): individual mice, 10 mg/kg
# Experimental: as §1, with “dehydration.” for “dehydration. For 20-hour experiments, animals were not injected with antibiotics; however, for survival studies, animals were given 0.5 mg per kg body weight imipenem (lot 4D21K05, WG Critical Care LLC) subcutaneously in 0.5 mL saline once at the end of CLP. All mice were subcutaneously injected with a single dose of 0.1 mg/kg buprenorphine after CLP.”
# PVECs and lung tissue were collected in previous steps. Whole-cell proteins were extracted, and the protein concentration was measured using an ABC protein assay kit (catalog 5000002, Bio-Rad). […] Bands were detected using an Odyssey FC Dual-Mode Imaging system 2800 (LI-COR).
# [1] = DLL4^+ neutrophil-injected CLP mice, 10 mg/kg
sequence,measurement,setting,value
ECAGSPCHNGGTCEDGI [NDI],effect on lung KC mRNA,KC; [1],"significantly decreased the mRNA expression of TNF-α, IL-6, and KC in lung tissues"
same,lung KC mRNA (Figure 6H),KC; DLL4^+ neutrophils + CLP,5.903 fold change and 0.6661 fold change and 4.862 fold change and 4.727 fold change and 4.686 fold change and 3.906 fold change and 2.6276 fold change and 0.3013 fold change and 7.635 fold change and 2.927 fold change and 2.999 fold change and 5.493 fold change and 8.856 fold change and 7.751 fold change and 5.829 fold change and 6.917 fold change
same,lung KC mRNA (Figure 6H),KC; DLL4^– neutrophils + CLP,5.187 fold change and 6.094 fold change and 6.9598 fold change and 7.18 fold change and 9.417 fold change and 3.542 fold change and 4.905 fold change and 5.1155 fold change and 3.48 fold change and 3.364 fold change
same,effect on c-GSDMD,"c-GSDMD; 10 μM NDI, DLL4^+ neutrophil coculture",significantly reduced these markers of PANoptosis
same,c/t GSDMD (Figure 4G),c-GSDMD; DLL4^+ neutrophil coculture,1.2879 and 0.9868 and 1.126 and 1.624 and 1.978 and 2.103 and 0.1622 and 0.328 and 1.184
same,c/t GSDMD (Figure 4G),c-GSDMD; DLL4^– neutrophil coculture,0.692 and 1.126 and 1.001 and 1.013 and 0.9854 and 1.021
same,effect on lung injury,"C57BL/6 mice, CLP sepsis; [1]",significantly lower lung injury scores
same,lung injury score (Figure 6J),"C57BL/6 mice, CLP sepsis; DLL4^+ neutrophils + CLP",0.52 and 0.49 and 0.54 and 0.51 and 0.53
same,lung injury score (Figure 6J),"C57BL/6 mice, CLP sepsis; DLL4^– neutrophils + CLP",0.58 and 0.44 and 0.52 and 0.48 and 0.54
same,lung ZBP1 protein (Figure 5B),ZBP1; DLL4^+ neutrophils + CLP,0.846 and 0.9823 and 0.8189 and 0.8666 and 0.6492 and 0.9798 and 0.8814
same,effect on lung ZBP1 protein,ZBP1; DLL4^+ neutrophils/sepsis,effectively decreased ZBP1 expression
same,lung ZBP1 protein (Figure 5B),ZBP1; DLL4^– neutrophils + CLP,1.332 and 0.9583 and 0.9668
